Measurements taken from publication PMC7026885, “Macrofilaricidal Benzimidazole–Benzoxaborole Hybrids as an Approach to the Treatment of River Blindness: Part 1. Amide Linked Analogs” (ACS Infectious Diseases, 2019).
Read-outs that look alike come from different tables or passages of the source.

Assays:
[1] = Metabolic stability in gerbil microsomes; format: in vitro ADME
Procedure: We characterized the in vitro ADME properties of 8a in preparation for evaluation of this compound in our primary in vivo model in gerbils. […] We were pleased to find that 8a was able to kill 100% of both male and female worms in the gerbil peritoneum when dosed subcutaneously at 100 mg/kg/day for 14 days as a suspension in a nonsolubilizing HEC/Tween vehicle. […] The subsequent assessment of the pharmacokinetics of 8a from these two dosing paradigms provided an interesting observation that we believe to be important in understanding the PK–PD requirements for achieving efficacy in this animal model. […] We had made the same observation in a positive control group using flubendazole at a subcutaneous dose of 10 mg/kg/day for 5 days in the nonsolubilizing HEC/Tween vehicle, namely, that plasma levels of flubendazole were maintained above the in vitro IC50 (4 nM) for over 42 days, consistent with data reported in the literature.[43] […] Additionally, when plasma obtained from treated animals at necropsy was analyzed for 8a, we observed an outcome similar to that observed in the adult implantation model, e.g., that measurable levels were present at this time point in the subcutaneous-dosed groups but not in the orally dosed groups, weeks after administration of the drug. […]

Brugia pahangi = Brugia pahangi L3 injection in vivo model in gerbils; conditions: B. pahangi, necropsy day 63, QD
Procedure: (§1) We characterized the in vitro ADME properties of 8a in preparation for evaluation of this compound in our primary in vivo model in gerbils. […] We were pleased to find that 8a was able to kill 100% of both male and female worms in the gerbil peritoneum when dosed subcutaneously at 100 mg/kg/day for 14 days as a suspension in a nonsolubilizing HEC/Tween vehicle. […] The subsequent assessment of the pharmacokinetics of 8a from these two dosing paradigms provided an interesting observation that we believe to be important in understanding the PK–PD requirements for achieving efficacy in this animal model. […] We had made the same observation in a positive control group using flubendazole at a subcutaneous dose of 10 mg/kg/day for 5 days in the nonsolubilizing HEC/Tween vehicle, namely, that plasma levels of flubendazole were maintained above the in vitro IC50 (4 nM) for over 42 days, consistent with data reported in the literature.[43] […] We next examined 8a in two additional in vivo models, the first where L3 B. pahangi larvae were injected into the peritoneum of gerbils and allowed to develop into adult worms[45] and a second where gerbils were naturally infected by the filarial nematode Litomosoides sigmodontis.[46],[47] In both of these models, 8a was administered subcutaneously at 100 mg/kg for 14 days or orally at 100 mg/kg for 28 days as a suspension. […] Additionally, when plasma obtained from treated animals at necropsy was analyzed for 8a, we observed an outcome similar to that observed in the adult implantation model, e.g., that measurable levels were present at this time point in the subcutaneous-dosed groups but not in the orally dosed groups, weeks after administration of the drug. In a final L. sigmodontis experiment with 8a, we dosed the compound subcutaneously at 300 mg/kg for 7 days as a suspension.
(§2) Plates were incubated at 37 °C in a 5% CO2 incubator for 6 days, then molting was assessed visually using an inverted microscope. Molting was determined in each well by counting the presence of fourth stage larvae (L4s) and empty casts of L3s.
(§3) The percent inhibition of molting was calculated based on the number of treated larvae that were able to molt in comparison to the number of control larvae that had successfully molted. IC50 values were calculated using GraphPad Prism v6.0
(§4) (http://www.graphpad.com). See Bullman et al., PLoS Negl. Trop.
(§5) Adult Brugia malayi transplantation in vivo model procedure.
(§6) Gerbils (Meriones unguiculatus) were infected by transplantation of 10 male and 10 female adult Brugia malayi into the peritoneal cavity. Gerbils were acclimated for 7 days prior to treatment. Animals were dosed based on their body weight prior to each dosing. Animals were administered their doses at the same time each day and receive standard rodent laboratory diet and water ad libitum. Gerbils were humanely euthanized at the conclusion of each study. Peritoneal counts of male and female adult B. malayi and visual condition of the peritoneum were recorded.
Brugia pahangi L3 injection in vivo model procedure 8. […]
(Filariatech, Inc., Athens, GA). […] All gerbils were dosed in accordance with their body weight determined prior to each dosing. […]
The adult Brugia worms were recovered by opening the body cavity and washing the peritoneal cavity with 100 mL of phosphate buffered saline. Male and female worms were counted using a […]

[2] = Plasma drug concentrations in treated infected gerbils; format: in vivo; conditions: for concentration at 42 day: day 42; for concentration at 28 day: day 28
Procedure: as §1

MDR1-MDCK monolayer = MDR1-MDCK monolayer permeability assay; format: in vitro ADME; conditions: dog
Procedure: as §1

[3] = MDR1-MDCK monolayer permeability assay; format: in vitro ADME; conditions: dog
Procedure: as §1

Brugia malayi = assay: Adult Brugia malayi transplantation in vivo model in gerbils; conditions: for adult worm reduction / animals with no worms: B. malayi, necropsy day 42, QD
Procedure: as §1, §2, §3, §4, §5, §6
Brugia pahangi L3 injection in vivo model procedure 8.
Male gerbils (Meriones unguiculatus) approximately 6 weeks of age (50-60 g) were purchased from Charles Rivers (USA, Kingston K62 Gerbils) and infected by intraperitoneal injection with 200 Brugia pahangi third-stage larvae (L3) per animal
(Filariatech, Inc., Athens, GA). Gerbils were housed with no more than 5 animals per cage and maintained 9 months prior to treatment. All gerbils were dosed in accordance with their body weight determined prior to each dosing. Animals were […]

micronucleus [4] = tested on: micronucleus; parameters: method as in PMID 26443851; conditions: in vitro; cited from earlier work
rat whole embryo culture = tested on: rat whole embryo culture; parameters: method as in PMID 23287076, PMID 24994687; conditions: cited from earlier work
micronucleus [5] = tested on: micronucleus; parameters: method as in PMID 26443851; conditions: in vivo; cited from earlier work
pregnant female rats = tested on: pregnant female rats; parameters: method as in PMID 23287076, PMID 24994687; conditions: dosed to pregnant female rats; cited from earlier work
[6] = 100 mg/kg × 14 days, SC (suspension)
[7] = 100 mg/kg × 28 days, PO (suspension)
[8] = 150 mg/kg × 14 days, SC (solution)

For `COC(=O)Nc1nc2cc(C(=O)NCc3ccc4c(c3)B(O)OC4(C)C)ccc2[nH]1` [8a], the microsomal CLint [1] was < 4 µL/min/mg, the adult worm reduction (Brugia pahangi; [6]) was 100% and the adult worm reduction (Brugia pahangi; [7]) was 24%. For the same compound, the “animals with no worms” value (Brugia pahangi; [7]) was 0%, the “drug concentration at necropsy” value ([2]; B. malayi model, necropsy day 42, 100 mg/kg × 28 days, QD, PO (suspension)) was “<LOQ” and the “drug concentration at necropsy” value ([2]; B. pahangi model, necropsy day 63, 100 mg/kg × 28 days, QD, PO (suspension)) was “<LOQ”. It also gave a concentration at 24 h after last dose ([2]; gerbil, plasma, po, 100 mg/kg, B. malayi model, 100 mg/kg × 28 days, QD, PO (suspension), read-out: drug concentration 24 h after last dose) of 128 nM, a concentration at 24 h after last dose ([2]; gerbil, plasma, po, 100 mg/kg, B. pahangi model, 100 mg/kg × 28 days, QD, PO (suspension), read-out: drug concentration 24 h after last dose) of 130 nM and a concentration at 42 day ([2]; gerbil, plasma, po, 100 mg/kg, L. sigmodontis model, 100 mg/kg × 28 days, QD, PO (suspension), read-out: drug concentration interim) of 6 nM. For the same compound, the concentration at 63 day (necropsy) ([2]; gerbil, plasma, po, 100 mg/kg, L. sigmodontis model, necropsy day 63, 100 mg/kg × 28 days, QD, PO (suspension)) was 3 nM, the concentration at 24 h after last dose ([2]; gerbil, plasma, po, 100 mg/kg, L. sigmodontis model, 100 mg/kg × 28 days, QD, PO (suspension), read-out: drug concentration 24 h after last dose) was 210 nM and the concentration at 28 day ([2]; gerbil, plasma, sc, 100 mg/kg, B. malayi model, 100 mg/kg × 14 days, QD, SC (suspension), read-out: drug concentration interim) was 5360 nM. For the same compound, the concentration at 42 day (necropsy) ([2]; gerbil, plasma, sc, 100 mg/kg, B. malayi model, necropsy day 42, 100 mg/kg × 14 days, QD, SC (suspension), read-out: drug concentration at necropsy) was 3380 nM, the concentration at 24 h after last dose ([2]; gerbil, plasma, sc, 100 mg/kg, B. malayi model, 100 mg/kg × 14 days, QD, SC (suspension), read-out: drug concentration 24 h after last dose) was 4100 nM and the concentration at 63 day (necropsy) ([2]; gerbil, plasma, sc, 100 mg/kg, B. pahangi model, necropsy day 63, 100 mg/kg × 14 days, QD, SC (suspension)) was 1150 nM. It also gave a concentration at 24 h after last dose ([2]; gerbil, plasma, sc, 100 mg/kg, B. pahangi model, 100 mg/kg × 14 days, QD, SC (suspension), read-out: drug concentration 24 h after last dose) of 5870 nM, a concentration at 63 day (necropsy) ([2]; gerbil, plasma, sc, 100 mg/kg, L. sigmodontis model, necropsy day 63, 100 mg/kg × 14 days, QD, SC (suspension)) of 69 nM and a concentration at 24 h after last dose ([2]; gerbil, plasma, sc, 100 mg/kg, L. sigmodontis model, 100 mg/kg × 14 days, QD, SC (suspension), read-out: drug concentration 24 h after last dose) of 9300 nM. The concentration at 28 day ([2]; gerbil, plasma, sc, 150 mg/kg, B. malayi model, 150 mg/kg × 14 days, QD, SC (solution), read-out: drug concentration interim) was 70 nM, the concentration at 42 day (necropsy) ([2]; gerbil, plasma, sc, 150 mg/kg, B. malayi model, necropsy day 42, 150 mg/kg × 14 days, QD, SC (solution), read-out: drug concentration at necropsy) was 10 nM and the concentration at 24 h after last dose ([2]; gerbil, plasma, sc, 150 mg/kg, B. malayi model, 150 mg/kg × 14 days, QD, SC (solution), read-out: drug concentration 24 h after last dose) was 2470 nM. It also gave a concentration at 21 day ([2]; gerbil, plasma, sc, 300 mg/kg, L. sigmodontis model, day 21, 300 mg/kg × 7 days, QD, SC (suspension), read-out: drug concentration interim) of 10600 nM, a concentration at 42 day ([2]; gerbil, plasma, sc, 300 mg/kg, L. sigmodontis model, 300 mg/kg × 7 days, QD, SC (suspension), read-out: drug concentration interim) of 4640 nM and a concentration at 63 day (necropsy) ([2]; gerbil, plasma, sc, 300 mg/kg, L. sigmodontis model, necropsy day 63, 300 mg/kg × 7 days, QD, SC (suspension)) of 480 nM. For the same compound, the concentration at 24 h after last dose ([2]; gerbil, plasma, sc, 300 mg/kg, L. sigmodontis model, 300 mg/kg × 7 days, QD, SC (suspension), read-out: drug concentration 24 h after last dose) was 7850 nM, the “Papp with Pgp efflux inhibitor GF-120918” value (MDR1-MDCK monolayer) was 2.7 × 10^–6 cm/s and the Papp A→B [3] was 0.8 ×10⁻⁶ cm/s. The adult worm reduction (Brugia malayi; [6]) was 100%, the “animals with no worms” value (Brugia malayi; [6]) was 87.5% and the adult worm reduction (Brugia malayi; [7]) was 12.5%. For the same compound, the “animals with no worms” value (Brugia malayi; [7]) was 0%, the adult worm reduction (Brugia malayi; [8]) was 83.3% and the “animals with no worms” value (Brugia malayi; [8]) was 50%. For the same compound, the in vivo efficacy (Brugia malayi; SC 150 mg/kg/day as a solution in DMSO/water vehicle) was “substantially reduced”, the “kill of both male and female worms in the gerbil peritoneum” value (Brugia malayi; implanted adult B. malayi or B. pahangi, SC 100 mg/kg/day for 14 days, suspension in HEC/Tween vehicle) was 100% and the “in vivo efficacy by the oral route” value (Brugia malayi; oral, 100 mg/kg/day for 28 days) was “not efficacious”.

With `COC(=O)Nc1nc2cc(C(=O)c3ccc(F)cc3)ccc2[nH]1` [compound 1, Flubendazole, reference compound] the adult worm reduction (Brugia pahangi; 10 mg/kg × 5 days, SC) was 100%/100%, the “animals with no worms” value (Brugia pahangi; 10 mg/kg × 5 days, SC) was 100%/100% and the concentration at 24 h after last dose ([2]; gerbil, in vivo, sc, 10 mg/kg, drug concentration 24 h after last dose) was 178 nM. For the same compound, the concentration at 42 day (necropsy) ([2]; gerbil, in vivo, sc, 10 mg/kg, drug concentration at necropsy) was 43 nM, the “time plasma levels maintained above in vitro IC50 (4 nM)” value ([2]; gerbil, in vivo, sc, 10 mg/kg/day) was “over 42 days” and the Papp A→B ([3]; A-B, Table 1, read-out: MDCK-MDR1 Papp (A-B)) was 15.6 ×10⁻⁶ cm/s. The micronucleus test result (micronucleus [4]) was “aneugen”, the embryotoxicity (rat whole embryo culture) was “potentially embryotoxic” and the adult worm reduction (Brugia malayi; 10 mg/kg × 5 days, SC) was 100%/100%. For the same compound, the “animals with no worms” value (Brugia malayi; 10 mg/kg × 5 days, SC) was 100%/100%, the micronucleus test result (micronucleus [5]) was “aneugen” and the embryotoxicity (pregnant female rats) was “potentially embryotoxic”.
